The source of these data is ChEMBL document CHEMBL1201862, “PubChem BioAssay data set” (2004).

Some test systems named below: HOP-62; SF-539; RPMI-8226; OVCAR-8; SK-MEL-2; HT-29; Malme-3M; U-251; A549; HCC 2998; HOP-92; SNB-19; CCRF-CEM; OVCAR-3; OVCAR-5; M14; HL-60; UO-31; NCI-H23; UACC-62.
What all share (assay): inhibition of tumour cell growth, NCI panel, 48 h

SMILES strings stand for the structures.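 Method: 48-hour compound exposure of cells in 96-well plates, five concentrations, linear interpolation of endpoints. GI50 is the concentration that inhibits growth by half.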 The source made the active and inactive calls. Rule as the data show it: active = GI50 up to about 1.1 µM and inactive = higher.

Turning to `COc1cccc2c1C(=O)c1c(O)c3c(c(O)c1C2=O)C[C@@](O)(C(=O)CO)C[C@@H]3OC1CC(N2CCOCC2)C(O)C(C)O1` (stereo partly specified), the GI50 in the assay with HOP-62 was 0.0199 µM (active); in the assay on SF-539, 0.0025 µM (active); with RPMI-8226, 0.0025 µM (active); in the assay on OVCAR-8 it was 0.0025 µM (active); in the assay with SK-MEL-2, 0.0025 µM (active); in the assay on HT-29, 0.00628 µM (active). Besides, the GI50 was 0.00259 µM (active) in the assay with Malme-3M; 0.0025 µM (active) with U-251; 0.00628 µM (active) with A549; 0.0127 µM (active) in the assay on HCC 2998; 0.00975 µM (active) in the assay with HOP-92; 0.0025 µM (active) in the assay on SNB-19. Further, the GI50 with CCRF-CEM is 0.00323 µM (active); in the assay with OVCAR-3 it was 0.0025 µM (active); in the assay on OVCAR-5, 0.00275 µM (active); in the assay on M14, 32.4 nM (active); with HL-60, 0.0025 µM (active); in the assay with UO-31, 0.0025 µM (active). In addition, the GI50 in the assay on NCI-H23 is 0.00567 µM (active).

As for `CC(=O)OC1CC2(O)C(CCC3(C)C(c4ccc(=O)oc4)CCC32O)C2(C)C1=CC(O)C1OC12` (stereo unspecified), the GI50 was 0.05 µM (active) in the assay with HOP-62; 0.0457 µM (active) in the assay with UACC-62; 0.0375 µM (active) in the assay on SF-539; 0.0675 µM (active) in the assay on RPMI-8226; 0.0349 µM (active) with OVCAR-8; 0.0724 µM (active) in the assay on SK-MEL-2. Moreover, the GI50 in the assay with HT-29 was 0.135 µM (active); in the assay with Malme-3M it was 0.0419 µM (active); with U-251 it was 0.0762 µM (active); in the assay with A549, 0.028 µM (active); in the assay with HCC 2998, 0.114 µM (active); in the assay with HOP-92, 0.0538 µM (active). The GI50 in the assay with SNB-19 is 0.118 µM (active); with CCRF-CEM, 0.0267 µM (active); in the assay on OVCAR-3, 0.0316 µM (active); with OVCAR-5, 0.239 µM (active); in the assay on HL-60 it was 0.0575 µM (active); with UO-31, 0.0713 µM (active). The GI50 with NCI-H23 is 0.0275 µM (active).

Take `O=P1(c2ccccc2)Nc2ccccc2SSc2ccccc2N1`: the GI50 in the assay with HOP-62 was > 10 µM (inactive); in the assay with UACC-62, 15.6 µM (inactive); in the assay on SF-539 it was 19.9 µM (inactive); in the assay with RPMI-8226, 18.3 µM (inactive); with OVCAR-8 it was 18.2 µM (inactive); in the assay with SK-MEL-2 it was 16.7 µM (inactive). Also, the GI50 is 19.2 µM (inactive) in the assay on HT-29; 18.4 µM (inactive) in the assay on Malme-3M; 16.7 µM (inactive) in the assay on U-251; 19.6 µM (inactive) in the assay with A549; 20.7 µM (inactive) in the assay with HCC 2998; 15.4 µM (inactive) with HOP-92. The GI50 with SNB-19 is 16.3 µM (inactive); with CCRF-CEM, 12.1 µM (inactive); with OVCAR-3, 15.1 µM (inactive); with OVCAR-5 it was 21.2 µM (inactive); with HL-60, 13.8 µM (inactive); in the assay with UO-31, 14.1 µM (inactive). In the assay with NCI-H23, the GI50 was 16.6 µM (inactive).

Take `COc1cc(CCCOC2OC(COC3OCC(O)C(O)C3O)C(O)C(O)C2O)cc2cc(-c3ccc4c(c3)OCO4)oc12` (stereo unspecified): the GI50 with HOP-62 is > 175 µM (inactive); in the assay on UACC-62, > 175 µM (inactive); in the assay with SF-539, > 175 µM (inactive); in the assay with RPMI-8226 it was > 175 µM (inactive); with OVCAR-8, 94.6 µM (inactive); in the assay with SK-MEL-2, > 175 µM (inactive). Moreover, the GI50 in the assay with HT-29 is > 175 µM (inactive); with Malme-3M, > 175 µM (inactive); in the assay with U-251, > 175 µM (inactive); with A549, > 175 µM (inactive); in the assay on HCC 2998 it was > 98.4 µM (inactive); in the assay with HOP-92, > 175 µM (inactive). In addition, the GI50 in the assay on SNB-19 is > 175 µM (inactive); with CCRF-CEM it was > 69.7 µM (inactive); in the assay on OVCAR-3, > 175 µM (inactive); with OVCAR-5, > 175 µM (inactive); in the assay on HL-60 it was > 175 µM (inactive); in the assay with UO-31, > 175 µM (inactive). Further, the GI50 with NCI-H23 was > 175 µM (inactive).
